Results reported in the NIST ThermoML archive (doi:10.1016/j.fluid.2012.11.006).
Where “and” joins values, the source holds several entries; their conditions need not be identical. Equal entries are not always repeated.

Experiments:
[1] = for vapor or sublimation pressure: Liquid
[2] = Molar enthalpy of transition or fusion; conditions: Crystal; DSC
[3] = molar enthalpy of transition or fusion; conditions: Crystal, DSC
[4] = molar enthalpy of vaporization or sublimation
[5] = molar heat capacity at constant pressure; conditions: 101.33 kPa, Crystal, Flow calorimetry

O=C(O)c1cc(Br)ccc1Br [2,5-dibromobenzoic acid]
[1]
Conditions	Normal melting temperature [°C]	vapor or sublimation pressure [kPa]
450.1 K, non-isothermal thermogravimetric	–	1.151
451.2 K, isothermal thermogravimetric	–	1.291
452 K, non-isothermal thermogravimetric	–	1.302
452.1 K, isothermal thermogravimetric	–	1.259
452.3 K, isothermal thermogravimetric	–	1.306
452.9 K, isothermal thermogravimetric	–	1.282
452.9 K, non-isothermal thermogravimetric	–	1.335
453.1 K, non-isothermal thermogravimetric	–	1.404
454.2 K, non-isothermal thermogravimetric	–	1.429
455.1 K, isothermal thermogravimetric	–	1.608
456.1 K, isothermal thermogravimetric	–	1.617
456.2 K, isothermal thermogravimetric	–	1.573
456.3 K, non-isothermal thermogravimetric	–	1.578
456.7 K, non-isothermal thermogravimetric	–	1.622
456.8 K, isothermal thermogravimetric	–	1.602
457.1 K, non-isothermal thermogravimetric	–	1.739
458.2 K, non-isothermal thermogravimetric	–	1.752
459.3 K, isothermal thermogravimetric	–	1.974
460 K, isothermal thermogravimetric	–	1.91
460.1 K, non-isothermal thermogravimetric	–	1.931
460.3 K, isothermal thermogravimetric	–	1.994
460.6 K, non-isothermal thermogravimetric	–	1.967
461 K, isothermal thermogravimetric	–	1.945
461.2 K, non-isothermal thermogravimetric	–	2.111
462.1 K, non-isothermal thermogravimetric	–	2.123
463.1 K, isothermal thermogravimetric	–	2.39
464.1 K, isothermal thermogravimetric	–	2.401
464.2 K, non-isothermal thermogravimetric	–	2.396
464.3 K, isothermal thermogravimetric	–	2.319
464.8 K, isothermal thermogravimetric	–	2.362
464.8 K, non-isothermal thermogravimetric	–	2.456
465.4 K, non-isothermal thermogravimetric	–	2.637
466.2 K, non-isothermal thermogravimetric	–	2.643
467 K, isothermal thermogravimetric	–	2.886
467.1 K, isothermal thermogravimetric	–	2.776
468.1 K, non-isothermal thermogravimetric	–	2.879
468.2 K, isothermal thermogravimetric	–	2.931
468.5 K, non-isothermal thermogravimetric	–	2.897
468.7 K, isothermal thermogravimetric	–	2.855
Crystal, DTA	155	–

Conditions	Molar enthalpy of transition or fusion [kJ/mol]
[2]	36.7

Conditions	molar enthalpy of transition or fusion [kJ/mol]	molar heat capacity at constant pressure
[3], 298.15 K	132	–
[3], 428 K	128	–
[5], 288.2 K	–	216 J/K/mol and 215.9 J/K/mol
[5], 290.2 K	–	217.4 J/K/mol and 217.6 J/K/mol and 217.5 J/K/mol
[5], 292.2 K	–	219.4 J/K/mol and 219.3 J/K/mol
[5], 294.2 K	–	220.4 J/K/mol and 220.6 J/K/mol and 220.5 J/K/mol
[5], 296.2 K	–	221.5 J/K/mol and 221.4 J/K/mol and 221.7 J/K/mol
[5], 298.2 K	–	222.9 J/K/mol and 223 J/K/mol and 223.1 J/K/mol
[5], 300.2 K	–	224.7 J/K/mol and 224.8 J/K/mol
[5], 302.2 K	–	225.9 J/K/mol and 225.6 J/K/mol and 225.8 J/K/mol
[5], 304.2 K	–	227 J/K/mol and 227.3 J/K/mol and 227.1 J/K/mol
[5], 306.2 K	–	228.3 J/K/mol and 228.4 J/K/mol and 228.5 J/K/mol
[5], 308.2 K	–	229.8 J/K/mol and 229.6 J/K/mol
[5], 310.2 K	–	231.7 J/K/mol and 231.6 J/K/mol and 231.5 J/K/mol
[5], 312.2 K	–	232.5 J/K/mol and 232.4 J/K/mol and 232.3 J/K/mol
[5], 314.2 K	–	234 J/K/mol and 233.9 J/K/mol and 234.1 J/K/mol
[5], 316.2 K	–	235.3 J/K/mol and 235.2 J/K/mol
[5], 318.2 K	–	237 J/K/mol and 236.8 J/K/mol and 236.9 J/K/mol
[5], 320.2 K	–	238.4 J/K/mol and 238.5 J/K/mol and 238.3 J/K/mol
[5], 322.2 K	–	239.1 J/K/mol and 239 J/K/mol
[5], 324.2 K	–	240.7 J/K/mol and 240.5 J/K/mol and 240.4 J/K/mol
[5], 326.2 K	–	242.4 J/K/mol and 242.1 J/K/mol and 242.3 J/K/mol

[4]
Conditions	molar enthalpy [kJ/mol]
298.15 K, Crystal, Torsion-effucion	134
428 K, Liquid, DSC	92.7
